Experimental data reported in patent publication US20220089578A1, “COMPOUNDS AS GLP-1R AGONISTS” (Terns Pharmaceuticals, Inc., priority 2020, published 2022).

Molecular target: human GLP-1R (Homo sapiens, UniProt P43220)
Test: GLP-1R Cell Assay 1: cAMP Hunter CHO-K1 GLP1R Gs cell line, HitHunter cAMP assay
Format: cell-based
Conditions: cAMP Hunter CHO-K1 GLP1R Gs cells, percent activity normalized to Exendin-4
Experimental: GLP-1R mediated agonist activity was determined using the cAMP Hunter CHO-K1 GLP1R Gs cell line (DiscoverX, cat# 95-0062C2), a stable CHO-K1 derived cell lines overexpressing naturally Gs coupled wild-type human GLP-1R (accession number: NM_002062.3). GLP-1R agonism in this cell line was detected by measuring cellular cAMP levels using the HitHunter cAMP assay kit (cat# 90-0075SM2), a homogenous, gain-of-signal competitive immune assay based on Enzyme Fragment Complementation (EFC) technology. In this system cellular cAMP competes with exogenous labeled cAMP (ED-cAMP) for binding to an anti-cAMP antibody. […] The luminescent signal is directly proportional to the amount of cellular cAMP.
For compound testing, cells were seeded in a total volume of 20 μL in white walled, 384-well microplates and incubated at 37° C. prior to compound testing. Prior to compound addition, cell culture media was removed by aspiration and replaced with 15 pt reagent buffer (2:1 HBSS/10 mM HEPES: cAMP XS+Ab reagent). Compounds were dissolved in DSMO and serially diluted (3-fold) prior to final dilution to 4X in assay buffer. Samples (5 μL) were added to cells and incubated at 37° C. for […] prior to 1 hour incubation with 20 pt cAMP XS+ED/CL lysis reagent and 3 hour incubation with 20 μL cAMP XS+EA reagent at room temperature. Microplates were read on a PerkinElmer Envision instrument. Compound activity was analyzed using CBIS data analysis suite (ChemInnovation). Percent activity was calculated based on duplicate assay runs and normalized to the positive control Exendin-4, a GLP-1R peptide agonist, using the following formula: […]
The effective compound concentration resulting in 50% response (EC50) was determined by non-linear regression analysis of dose-response curves.

Sequence of human GLP-1R (P43220 24-463): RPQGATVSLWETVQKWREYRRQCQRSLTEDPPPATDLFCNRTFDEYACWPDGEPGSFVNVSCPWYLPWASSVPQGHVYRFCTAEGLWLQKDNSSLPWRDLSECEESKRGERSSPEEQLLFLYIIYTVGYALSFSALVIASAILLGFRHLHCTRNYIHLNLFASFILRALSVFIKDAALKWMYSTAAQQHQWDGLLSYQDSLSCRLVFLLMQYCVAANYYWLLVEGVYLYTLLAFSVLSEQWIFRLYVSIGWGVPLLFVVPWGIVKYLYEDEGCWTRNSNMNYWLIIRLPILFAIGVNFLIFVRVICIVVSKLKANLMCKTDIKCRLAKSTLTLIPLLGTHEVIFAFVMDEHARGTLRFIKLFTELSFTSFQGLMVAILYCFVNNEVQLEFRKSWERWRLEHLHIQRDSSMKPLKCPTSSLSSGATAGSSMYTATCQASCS

Compound	EC50 (Table 3) [nM]	EC50 (Table 2) [nM]
O=C(O)c1ccc2nc(CN3CCN(c4ccc5cc(-c6ccccc6)oc5n4)CC3)n(C[C@@H]3CCO3)c2c1 [Compound 160, (S)-1-(oxetan-2-ylmethyl)-2-((4-(2-phenylfuro[2,3-b]pyridin-6-yl)piperazin-1-yl)methyl)-1H-benzo[d]imidazole-6-carboxylic acid]	> 500	
O=C(O)c1ccc2nc(CN3CCN(c4cccc(OCc5cc6ccccc6o5)n4)CC3)n(C[C@@H]3CCO3)c2c1 [Compound 68, (S)-2-((4-(6-(benzofuran-2-ylmethoxy)pyridin-2-yl)piperazin-1-yl)methyl)-1-(oxetan-2-ylmethyl)-1H-benzo[d]imidazole-6-carboxylic acid]		2.03
N#CC1(COc2cccc(N3CCN(Cc4nc5ccc(C(=O)O)cc5n4C[C@@H]4CCO4)CC3)n2)CCOCC1 [Compound 41, (S)-2-((4-(6-((4-cyanotetrahydro-2H-pyran-4-yl)methoxy)pyridin-2-yl)piperazin-1-yl)methyl)-1-(oxetan-2-ylmethyl)-1H-benzo[d]imidazole-6-carboxylic acid]		> 500
N#Cc1ccc2c(c1)CCN(c1ccn(C3CCN(Cc4nc5ccc(C(=O)O)cc5n4C[C@@H]4CCO4)CC3)n1)CC2 [Compound 106, (S)-2-((4-(3-(7-cyano-1,2,4,5-tetrahydro-3H-benzo[d]azepin-3-yl)-1H-pyrazol-1-yl)piperidin-1-yl)methyl)-1-(oxetan-2-ylmethyl)-1H-benzo[d]imidazole-6-carboxylic acid]		> 500
N#Cc1ccc(COc2ccn(C3CCN(Cc4nc5ccc(C(=O)O)cc5n4C[C@@H]4CCO4)CC3)n2)c(F)c1 [Compound 92, (S)-2-((4-(3-((4-cyano-2-fluorobenzyl)oxy)-1H-pyrazol-1-yl)piperidin-1-yl)methyl)-1-(oxetan-2-ylmethyl)-1H-benzo[d]imidazole-6-carboxylic acid]		8.35
O=C(O)c1ccc2nc(CN3CCN(c4cccc(OCC5CC6(CCOCC6)C5)n4)CC3)n(C[C@@H]3CCO3)c2c1 [Compound 48, (S)-2-((4-(6-((7-oxaspiro[3.5]nonan-2-yl)methoxy)pyridin-2-yl)piperazin-1-yl)methyl)-1-(oxetan-2-ylmethyl)-1H-benzo[d]imidazole-6-carboxylic acid]		> 500
O=C(O)c1ccc2nc(CN3CCN(c4cccc(OCc5ccc6ccccc6c5)n4)CC3)n(C[C@@H]3CCO3)c2c1 [Compound 70, (S)-2-((4-(6-(naphthalen-2-ylmethoxy)pyridin-2-yl)piperazin-1-yl)methyl)-1-(oxetan-2-ylmethyl)-1H-benzo[d]imidazole-6-carboxylic acid]		1.19
O=C(O)c1ccc2nc(CN3CC[C@]4(c5cccc(OCc6ccc(Cl)cc6Cl)n5)C[C@@H]4C3)n(C[C@@H]3CCO3)c2c1 (single isomer, unassigned) [Compound 126-P2]		0.373
N#Cc1ccc2sc(COc3cccc(N4CCN(Cc5nc6ccc(C(=O)O)cc6n5C[C@@H]5CCO5)CC4)n3)nc2c1 [Compound 129, (S)-2-((4-(6-((5-cyanobenzo[d]thiazol-2-yl)methoxy)pyridin-2-yl)piperazin-1-yl)methyl)-1-(oxetan-2-ylmethyl)-1H-benzo[d]imidazole-6-carboxylic acid]		2.6
N#Cc1ccc(COc2cccc(N3CCN(Cc4nc5ccc(C(=O)O)cc5n4CC4CCS4(=O)=O)CC3)n2)c(F)c1 (single isomer, unassigned) [Compound 140-P2]		0.17
C[C@H]1COC[C@@H](N2CCC(c3cccc(OCc4ccc(C#N)cc4F)n3)CC2)c2nc3ccc(C(=O)O)cc3n21 (single isomer, unassigned) [Compound 8-P2]		82.1
CC(=O)N1CCC(COc2cccc(N3CCN(Cc4nc5ccc(C(=O)O)cc5n4C[C@@H]4CCO4)CC3)n2)CC1 [Compound 38, (S)-2-((4-(6-((1-acetylpiperidin-4-yl)methoxy)pyridin-2-yl)piperazin-1-yl)methyl)-1-(oxetan-2-ylmethyl)-1H-benzo[d]imidazole-6-carboxylic acid]		> 500
N#Cc1ccc(COc2cccc(C3CCN([C@@H]4CCCn5c4nc4ccc(C(=O)O)cc45)CC3)n2)c(F)c1 [Compound 87, (R)-4-(4-(6-((4-cyano-2-fluorobenzyl)oxy)pyridin-2-yl)piperidin-1-yl)-1,2,3,4-tetrahydrobenzo[4,5]imidazo[1,2-a]pyridine-8-carboxylic acid]		> 500
O=C(O)c1ccc2nc(CN3CCC(c4cccc(OC5CCCc6ccccc65)n4)CC3)n(C[C@@H]3CCO3)c2c1 (stereo partly drawn) [Compound 161, 1-(((S)-oxetan-2-yl)methyl)-2-((4-(6-((1,2,3,4-tetrahydronaphthalen-1-yl)oxy)pyridin-2-yl)piperidin-1-yl)methyl)-1H-benzo[d]imidazole-6-carboxylic acid]	304	
O=C(O)c1ccc2nc(CN3CCN(c4cccc(OCc5nc6c(F)cccc6s5)n4)CC3)n(C[C@@H]3CCO3)c2c1 [Compound 107, (S)-2-((4-(6-((4-fluorobenzo[d]thiazol-2-yl)methoxy)pyridin-2-yl)piperazin-1-yl)methyl)-1-(oxetan-2-ylmethyl)-1H-benzo[d]imidazole-6-carboxylic acid]		1.07
CC1Cc2cc(C#N)cc(F)c2CN1c1cccc(N2CCN(Cc3nc4ccc(C(=O)O)cc4n3C[C@@H]3CCO3)CC2)n1 (stereo partly drawn) [Compound 133, 2-((4-(6-(6-cyano-8-fluoro-3-methyl-3,4-dihydroisoquinolin-2(1H)-yl)pyridin-2-yl)piperazin-1-yl)methyl)-1-(((S)-oxetan-2-yl)methyl)-1H-benzo[d]imidazole-6-carboxylic acid]		10.6
NC(=O)c1cnc(COc2cccc(N3CCN(Cc4nc5ccc(C(=O)O)cc5n4C[C@@H]4CCO4)CC3)n2)nc1 [Compound 81, (S)-2-((4-(6-((5-carbamoylpyrimidin-2-yl)methoxy)pyridin-2-yl)piperazin-1-yl)methyl)-1-(oxetan-2-ylmethyl)-1H-benzo[d]imidazole-6-carboxylic acid]		207
N#Cc1ccc(COc2cccc([C@@]34CCN(Cc5nc6ccc(C(=O)O)cc6n5C[C@@H]5CCO5)C[C@@H]3C4)n2)c(F)c1 (single isomer, unassigned) [Compound 9-P1]		0.171
CCn1cncc1Cn1c(CN2CCC(c3cccc(N4CCc5cc(C#N)cc(F)c5C4)n3)CC2)nc2ccc(C(=O)O)cc21 [Compound 137, 2-((4-(6-(6-cyano-8-fluoro-3,4-dihydroisoquinolin-2(1H)-yl)pyridin-2-yl)piperidin-1-yl)methyl)-1-((1-ethyl-1H-imidazol-5-yl)methyl)-1H-benzo[d]imidazole-6-carboxylic acid]		0.0514
CCc1cn(C2CCN(Cc3nc4ccc(C(=O)O)cc4n3C[C@@H]3CCO3)CC2)nc1OCc1ccc(C#N)cc1F [Compound 124, (S)-2-((4-(3-((4-cyano-2-fluorobenzyl)oxy)-4-ethyl-1H-pyrazol-1-yl)piperidin-1-yl)methyl)-1-(oxetan-2-ylmethyl)-1H-benzo[d]imidazole-6-carboxylic acid]		22.9
N#Cc1ccc(COc2cccc(C3CCN([C@H]4COCCn5c4nc4ccc(C(=O)O)cc45)CC3)n2)c(F)c1 (single isomer, unassigned) [Compound 7-P1]		5.19
O=C(O)c1ccc2nc(CN3CC(=O)N(c4cccc(OCc5ccccc5)n4)CC3=O)n(C[C@@H]3CCO3)c2c1 [Compound 17, (S)-2-((4-(6-(benzyloxy)pyridin-2-yl)-2,5-dioxopiperazin-1-yl)methyl)-1-(oxetan-2-ylmethyl)-1H-benzo[d]imidazole-6-carboxylic acid]		23
O=C(O)c1ccc2nc(CN3CCC(c4cccc(OCc5nccs5)n4)CC3)n(C[C@@H]3CCO3)c2c1 [Compound 139, (S)-1-(oxetan-2-ylmethyl)-2-((4-(6-(thiazol-2-ylmethoxy)pyridin-2-yl)piperidin-1-yl)methyl)-1H-benzo[d]imidazole-6-carboxylic acid]		2.65
O=C(O)c1ccc2nc(CN3CCN(c4ccc5ncn(Cc6ccccc6)c5n4)CC3)n(C[C@@H]3CCO3)c2c1 [Compound 28, (S)-2-((4-(3-benzyl-3H-imidazo[4,5-b]pyridin-5-yl)piperazin-1-yl)methyl)-1-(oxetan-2-ylmethyl)-1H-benzo[d]imidazole-6-carboxylic acid]		> 500
O=C(O)c1ccc2nc(CN3CCC(O)(c4cccc(OCc5ccccc5)n4)CC3)n(C[C@@H]3CCO3)c2c1 [Compound 18, (S)-2-((4-(6-(benzyloxy)pyridin-2-yl)-4-hydroxypiperidin-1-yl)methyl)-1-(oxetan-2-ylmethyl)-1H-benzo[d]imidazole-6-carboxylic acid]		> 500
N#Cc1cc(F)c2c(c1)CCN(c1cccc(C34CCN(Cc5nc6ccc(C(=O)O)cc6n5CC5CCO5)CC3C4)n1)C2 (centres unmarked) [Compound 168, 2-((6-(6-(6-cyano-8-fluoro-3,4-dihydroisoquinolin-2(1H)-yl)pyridin-2-yl)-3-azabicyclo[4.1.0]heptan-3-yl)methyl)-1-(oxetan-2-ylmethyl)-1H-benzo[d]imidazole-6-carboxylic acid]	17.4	
